In article PMC5620277, “The histone methyltransferase EZH2 as a druggable target in SHH medulloblastoma cancer stem cells” (Oncotarget, 2017):

Key:
[1] = PAMPA-BBB (porcine brain lipid extract artificial membrane); assay type: in vitro ADME; conditions: for Papp at 24 h: Pe in cm/s, pH 7.4, 24 h, room temperature, triplicate, read-out: Log Pe (converted)
Procedure: Donor solution (500 μM or 250 μM) was prepared by diluting 10 or 5 mM DMSO compound stock solution using phosphate buffer (pH 7.4, 0.01 M). Filter membrane was coated with 5 μl of BBB-specific lipid solution prepared dissolving 16 mg of PBL (Avanti Lipids Polar, 141101P) in 600 μl of n-dodecane. Donor solution (150 μl) was added to each well of the filter plate. To each well of the acceptor plate 300 μl of solution (5% DMSO in phosphate buffer) were added. Each compound was tested in triplicate. The sandwich was incubated for 24 h at room temperature under gentle shaking. After the incubation time, the sandwich plates were separated and 250 μl of the acceptor plate were transferred to a UV quartz microtiter plate and measured by UV spectroscopy, using a Multiskan GO microplate spectrophotometer (Thermo Scientific) at 250−500 nm at step of 5 nm. Reference solutions (250 μl) were prepared diluting the sample stock solutions to the same concentration as that with no membrane barrier. The BBB permeability value Log Pe is determined applying the equation:
log Pe= log{C⋅(−ln(1−[drug]acceptor/[drug]equilibrium))},
where C=(VD⋅VA/(VD+VA)area⋅time)
In this equation, VA is the volume of the acceptor compartment (0.3 cm^3), VD is the donor volume (0.15 cm^3), area is the accessible filter area (0.24 cm^2), and time is the incubation time in seconds.

[2] = system: DAOY-SLCs; test: Cell viability, MTS assay, DAOY-SLCs; assay type: cell-based; conditions: 5 μM, after 72 h
Procedure: (§1) To evaluate cell viability cells were plated at a density of 5×10^3 cells/well in 96-well plates and were incubated with MTS solution (CellTiter 96® AQueous One Solution Promega).

[3] = system: hMB-SLCs; test: Western Blot of H3K27me3, PCNA, cleaved caspase 3 in hMB-SLCs; assay type: cell-based, human; conditions: 5 μM, 48 h
Procedure: as §1
(§2) Western blots were performed according to standard procedures. Briefly, protein lysates were prepared using RIPA buffer with fresh protease inhibitors. Lysates were separated on SDS polyacrylamide gels. Proteins were transferred on nitrocellulose membrane (0.45 micron) (PerkinElmer). Membranes were blocked for 1 h at room temperature in 5% nonfat dry milk and incubated overnight at 4°C with antibodies against EZH2 (4905S Cell signaling), H3K27me3 (07-449 Millipore), PCNA (2586 Cell signaling), ACTIN (I-19 sc-1616; Santa Cruz Biotechnology), GAPDH (ab9484, Abcam), cleaved CSP-3 (D-175 9661S; Cell Signaling) and H3 (ab1971, Abcam). HRP-conjugated secondary antibodies (Santa Cruz Biotechnology) were used in combination with enhanced chemiluminescence (ECL Amersham).

[4] = system: DAOY-SLCs; test: Western Blot of H3K27me3 and PCNA in DAOY-SLCs; assay type: cell-based; conditions: 5 μM, 48 h
Procedure: as §1, §2

[5] = system: mMB-SLCs; test: Western Blot of H3K27me3, PCNA, cleaved caspase 3 in mMB-SLCs; assay type: cell-based, mouse; conditions: mMB-SLCs, 5 μM, 48 h
Procedure: Afterwards, we tested the ability of MC3629 (at 0.5, 5, and 25 μM) to inhibit the EZH2 enzymatic activity on a cell-based assay in vitro. The lower significant MC3629 dosage to decrease the H3K27me3 level in MB-SLCs was 5 μM (Figure 2C).
as §1, §2

[6] = system: hMB-SLCs; test: Self-renewal, clonogenic assay, hMB-SLCs; assay type: cell-based, human; conditions: 5 μM
Procedure: (§3) For self-renewal assessment, clonogenic assay was performed as previously described. Briefly: oncospheres were disaggregated with non-enzymatic cell dissociation buffer (Sigma) and cells were plated at clonal density (1-2 cells/mm^2) into 96-well plates and cultured for an appropriate number of days (7-15) until oncospheres were countable.

[7] = system: DAOY cells; test: Western Blot of H3K27me3 and PCNA in DAOY cells; assay type: cell-based; conditions: 5 μM, 48 h
Procedure: as §1, §2

[8] = system: mMB-SLCs; test: Self-renewal, clonogenic assay, mMB-SLCs; assay type: cell-based, mouse; conditions: 5 μM
Procedure: as §3

Row | Compound | Papp at 24 h [1] | cell viability [2] | H3K27me3 and PCNA protein levels [3] | H3K27me3 and PCNA levels [4] | H3K27me3 and PCNA protein levels [5] | self-renewal [6] | H3K27me3 and PCNA levels [7] | self-renewal [8] | Δ Log Pe ([1]; respect to propranolol)
1 | CC(C)NCC(O)COc1cccc2ccccc12 (stereo not shown) [propranolol] | 6.17 ×10⁻⁶ cm/s |  |  |  |  |  |  |  | 
2 | CC[C@H](C)n1cc(C)c2c(C(=O)NCc3c(C)cc(C)[nH]c3=O)cc(-c3ccc(N4CCNCC4)nc3)cc21 [GSK2816126, reference compound] | 3.89 ×10⁻⁶ cm/s | significantly impair | significantly impaired | down modulated | significantly impaired | significantly reduced | impaired only by MC3629 | significantly reduced | −0.20
